From the NIST ThermoML archive (doi:10.1021/je800331n)
± gives the expanded uncertainty stated by the source.

Details: Liquid, Vibrating tube method

mass density (298.15 K)	mass density (303.15 K)	mass density (308.15 K)	mass density (313.15 K)	mass density (323.15 K)	mass density (333.15 K)	mass density (343.15 K)	mass density (353.15 K)	SMILES
1366.57 ± 0.55 kg/m3	1362.23 ± 0.54 kg/m3	1357.92 ± 0.54 kg/m3	1353.63 ± 0.53 kg/m3	1345.33 ± 0.53 kg/m3	–	–	–	CCCCn1cc[n+](C)c1.F[P-](F)(F)(F)(F)F [1-butyl-3-methylimidazolium hexafluorophosphate]
1192.03 ± 0.39 kg/m3	1188.38 ± 0.39 kg/m3	–	1181.25 ± 0.38 kg/m3	1174.18 ± 0.37 kg/m3	1167.09 ± 0.37 kg/m3	1160.17 ± 0.36 kg/m3	1152.63 ± 0.36 kg/m3	CCCCn1cc[n+](C)c1.F[B-](F)(F)F [1-butyl-3-methylimidazolium tetrafluoroborate]
